Patent US20100292292A1, “Treatment of Neurodegenerative Diseases Using Indatraline Analogs” (LINK MEDICINE CORPORATION, priority 2007, published 2010)
Entries after “also recorded” stand apart in the source; their conditions may differ.

Tests used:
[1] = target: T1, purified recombinant human α-synuclein (Homo sapiens, UniProt P37840); assay: α-synuclein aggregation in aqueous solution (Thioflavin T fluorescence, fluorescence polarization); format: biochemical; details: α-synuclein 70 μM, 20 mM Bis-tris propane pH 7.4, 100 mM LiCl, 37° C., gentle agitation, Thioflavin T fluorescence and/or fluorescence polarization
Procedure: Compounds were incubated with purified recombinant human α-synuclein (70 μM) in an aqueous buffer system (20 mM Bis-tris propane, pH 7.4, 100 mM LiCl) at 37° C. with gentle agitation. Structure formation was monitored by Thioflavin T fluorescence and/or fluorescence polarization. Thioflavin T fluorescence can be used to measure aggregation of amyloidogenic proteins, including α-synuclein (excitation, 440 nm; emission, 495 nm) (Naiki, H.; Higuchi, K.; Hosokawa, M.; Takeda, T., Fluorometric determination of amyloid fibrils in vitro using the fluorescent dye, thioflavin T1. Anal Biochem 1989, 177, (2), 244-9; incorporated herein by reference). Average molecular size was monitored by fluorescence polarization using human α-synuclein covalently conjugated to Alexa Fluor 594 (excitation, 546 nm; emission, 620 nm) (Luk, K. C.; Hyde, E. G.; Trojanowski, J. Q.; Lee, V. M., Sensitive fluorescence polarization technique for rapid screening of alpha-synuclein oligomerization/fibrillization inhibitors. Biochemistry 2007, 46, (44), 12522-9; incorporated herein by reference).

[2] = target: alpha-synuclein (Homo sapiens, UniProt P37840); assay: Solution NMR binding studies
Source text: Importantly, stabilization of such off-pathway conformers can reduce the rate of α-synuclein fibrillization. For instance, sequence changes that promote formation of helical conformers also reduce the rate of α-synuclein fibrillization. A novel screen was devised to identify small molecules capable of promoting off-pathway conformers of α-synuclein. A screen of 640 central nervous system (CNS-active) compounds, including many approved CNS drugs, identified an active compound, indatraline (INDAT), a monoamine reuptake inhibitor that has been widely used as a research tool.

[3] = system: dopaminergic neurons (primary rat embryonic midbrain culture) infected with lentivirus encoding human A53T α-synuclein; assay: Primary neuronal toxicity assay; format: cell-based; details: for decrease of α-synuclein neurotoxicity in dopaminergic neurons (TH+ cells): E17 rat midbrain culture, A53T α-synuclein lentivirus, 3 days treatment
Source text: Indatraline decreased α-synuclein neurotoxicity in dopaminergic neurons. Midbrain cultures will be prepared from E17 rat ventral mesencephalon as described in a published protocol (Xu, J.; Kao, S. Y.; Lee, F. J.; Song, W.; Jin, L. W.; Yankner, B. A., Dopamine-dependent neurotoxicity of alpha-synuclein: a mechanism for selective neurodegeneration in Parkinson disease. Nat Med 2002, 8, (6), 600-6; incorporated herein by reference). Cultured cells were infected with a recombinant lentivirus encoding human A53T α-synuclein (A53T) or a control virus (none). Cells were treated with various concentrations of indatraline (black bars) for 3 days. Cells were then fixed and immunostained for Microtubule-associated protein 2, which stains all neurons, and Tyrosine Hydroxylase, a marker for dopaminergic neurons. Toxicity of A53T α-synuclein toward dopaminergic neurons was determined by calculating the percentage neurons positive for tyrosine hydroxylase (TH^+ cells).

[4] = system: α-synuclein-induced retinal degeneration in transgenic Drosophila (human A30P α-synuclein); assay: Drosophila retinal assay; format: in vivo; details: transgenic Drosophila expressing human A30P α-synuclein in retina, drug in food
Source text: Human A30P α-synuclein expression was directed to the retina with the glass multimer reporter (GMR) promoter. The transgene induces progressive retinal degeneration. Dry food (Formula 4-24; Carolina Biological Supply) was rehydrated with water or an aqueous solution of drug. Drug concentration refers to the final concentration of compound in the aqueous solution. Transgenic female flies less than 12-hours-old were placed on either untreated or drug-embedded food. For analysis of retinal degeneration, fly heads were annealed to a glass microscope, then eyes were transilluminated following optical neutralization of the corneas with immersion oil and examined under a 100× lens (Franceschini, N., Pupil and pseudopupil in the compound eye of Drosophila. In Information processing in the visual system of Drosophila, Wehner, R., Ed. Springer: Berlin, 1972; pp 75-82; incorporated here in by reference). For quantitation, 20-50 ommatidia per eye of at least 12 eyes were examined per group. The percent normal ommatidia was calculated for each eye and averaged for each sample set. Indatraline suppressed α-synuclein-induced retinal degeneration (FIG. 26A).

[5] = target: T1, purified recombinant human α-synuclein; assay: α-synuclein structure formation/aggregation in the presence of HFIP (Thioflavin T fluorescence, fluorescence polarization); format: binding; details: α-synuclein 20 μM, 25 mM Tris pH 8.0, 3.1% HFIP, room temperature, compound 50-400 μM, Thioflavin T fluorescence and/or fluorescence polarization
Procedure: HFIP induces rapid structure formation and aggregation of α-synuclein (Munishkina et al., Biochemistry 42:2720-30, 2003; Maiti, Apetri et al., J Am Chem Soc, 126:2399-408, 2004; each of which is incorporated herein by reference). Compounds were incubated with purified recombinant human α-synuclein (20 μM) in a buffer containing HFIP (25 mM Tris, pH 8.0, 3.1% HFIP) at room temperature. Structure formation was monitored by Thioflavin T fluorescence and fluorescence polarization. Thioflavin T fluorescence can be used to measure aggregation of amyloidogenic proteins, including α-synuclein (excitation, 440 nm; emission, 495 nm) (Naiki et al., Anal. Biochem., 177:244-9, 1989; Conway et al., Biochemistry, 39:2552-63, 2000; each of which is incorporated herein by reference). Average molecular size was monitored by fluorescence polarization using human α-synuclein covalently conjugated to Alexa Fluor 594 (excitation, 546 nm; emission, 620 nm). Assays were performed in a 384-well plate and readings taken directly from each well over time.

| SMILES | delay of α-synuclein aggregation in aqueous solution [1] | delay of α-synuclein aggregation in aqueous solution ([1]; listed as indatraline) | binding site on alpha-synuclein by solution NMR [2] | decrease of α-synuclein neurotoxicity in dopaminergic neurons (TH+ cells) [3] | decrease of α-synuclein neurotoxicity in dopaminergic neurons (TH+ cells) ([3]; listed as indatraline) | IC50 ([3]; Neuron, primary rat embryonic midbrain culture, FIG. 26B, read-out: IC50, reduction of alpha-synuclein toxicity in dopaminergic neurons) | suppression of α-synuclein-induced retinal degeneration (percent normal ommatidia) [4] | suppression of α-synuclein-induced retinal degeneration (percent normal ommatidia) ([4]; listed as indatraline) | binding to α-synuclein and effect on the rate of structure formation/aggregation in the presence of HFIP [5] | binding to α-synuclein and effect on the rate of structure formation/aggregation in the presence of HFIP ([5]; listed as indatraline) |
| --- | --- | --- | --- | --- | --- | --- | --- | --- | --- | --- |
| CN[C@@H]1C[C@@H](c2ccc(Cl)c(Cl)c2)c2ccccc21 [Indatraline, indatraline] | delay the initiation of α-synuclein aggregation | reduced the rate of alpha-synuclein fibrillization (and nucleation); also recorded: delays aggregation of α-synuclein in a dose-dependent manner | binds at a sequence near the C-terminus of alpha-synuclein | diminished toxicity of A53T α-synuclein toward dopaminergic neurons in a dose-dependent manner; also recorded: decreases α-synuclein neurotoxicity | reduced the toxicity of alpha-synuclein; also recorded: decrease α-synuclein neurotoxicity | ~500 nM | suppresses α-synuclein-induced retinal degeneration; also recorded: decreases α-synuclein-mediated retinal degeneration | reduced the toxicity of alpha-synuclein; also recorded: suppress α-synuclein-induced retinal degeneration | bind to α-synuclein and affect the rate of protein aggregation | binds to α-synuclein and affects the rate of structure formation |
| CN(C)C1CC(Cc2ccc(Cl)c(Cl)c2)c2ccccc21 (stereo not drawn) [LNK-122] | – | – | – | – | – | – | – | – | binds to α-synuclein and affects the rate of structure formation; also recorded: bind to α-synuclein and affect the rate of protein aggregation | – |
| c1ccc(CNCC2CC(c3ccccc3)c3ccccc32)cc1 (stereo not drawn) [LNK-1521] | – | – | – | – | – | – | – | – | bind to α-synuclein and affect the rate of protein aggregation | – |
